Laboratory results as given in US12011444B2, “N-substituted indole derivatives as PGE2 receptor modulators” (Idorsia Pharmaceuticals Ltd, priority 2015, dated 2024).

Experiments:
[1] = target: PTGER2 (EP2) (Homo sapiens (Human), UniProt P43116); test: hEP2 b-arrestin assay (PathHunter HEK 293 PTGER2 b-arrestin cells); format: cell-based; details: hEP2 b-arrestin assay (values without asterisk)
In short: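 Readout is β-galactosidase complementation luminescence, expressed as percent of DMSO control (duplicates). PathHunter HEK293 EP2/β-arrestin 2 cells, grown 24 h, received compound for 15 min at 37 °C before a 120 min challenge with PGE2 at 5 μM final, followed by 1 h detection at room temperature.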

[2] = target: PTRGER4 (EP4) (Homo sapiens (Human), UniProt P35408); test: hEP4 b-arrestin assay (PathHunter HEK 293 PTGER4 b-arrestin cells); format: cell-based; details: hEP4 b-arrestin assay (values without asterisk)
In short: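 Antagonist mode: compound is given 15 min at 37 °C, then 20 nM (final) PGE2 for 120 min, in HEK293 cells stably expressing EP4 fused to ProLink and β-arrestin 2 fused to EA. Recruitment read as β-gal luminescence after 1 h reagent at room temperature, as percent of DMSO control.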

Sequence of PTGER2 (EP2) (P43116 whole entry): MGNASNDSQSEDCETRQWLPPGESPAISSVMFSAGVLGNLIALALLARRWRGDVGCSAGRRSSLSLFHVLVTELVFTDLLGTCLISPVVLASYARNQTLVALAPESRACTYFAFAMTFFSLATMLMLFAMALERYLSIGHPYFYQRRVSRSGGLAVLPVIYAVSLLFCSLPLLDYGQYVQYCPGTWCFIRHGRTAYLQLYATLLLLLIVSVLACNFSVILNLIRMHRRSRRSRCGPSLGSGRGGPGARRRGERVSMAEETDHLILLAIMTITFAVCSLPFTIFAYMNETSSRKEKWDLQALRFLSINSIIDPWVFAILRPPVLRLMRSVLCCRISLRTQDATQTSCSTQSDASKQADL
Sequence of PTRGER4 (EP4) (P35408 whole entry, looked up, the tested form may be a part): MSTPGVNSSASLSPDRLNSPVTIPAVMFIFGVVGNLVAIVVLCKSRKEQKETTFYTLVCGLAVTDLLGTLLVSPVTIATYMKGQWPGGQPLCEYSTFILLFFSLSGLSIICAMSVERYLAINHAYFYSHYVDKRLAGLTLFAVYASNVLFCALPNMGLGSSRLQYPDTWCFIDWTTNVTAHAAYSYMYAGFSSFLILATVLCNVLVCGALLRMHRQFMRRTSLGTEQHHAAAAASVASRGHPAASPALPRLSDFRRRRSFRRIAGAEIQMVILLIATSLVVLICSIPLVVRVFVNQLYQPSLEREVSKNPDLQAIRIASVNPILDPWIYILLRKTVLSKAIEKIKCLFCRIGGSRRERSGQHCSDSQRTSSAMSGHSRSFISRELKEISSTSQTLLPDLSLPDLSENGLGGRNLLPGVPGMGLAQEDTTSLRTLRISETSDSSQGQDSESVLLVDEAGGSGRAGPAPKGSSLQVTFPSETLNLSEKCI

Row | SMILES | IC50 [1] | IC50 [2]
1 | CCOc1cc(-c2cc(NCCn3c(C#N)cc4c(C)c(F)c(F)cc43)ncn2)sc1C(=O)O [Example 890, 5-{6-[2-(2-Cyano-5,6-difluoro-4-methyl-indol-1-yl)-ethylamino]-pyrimidin-4-yl}-3-ethoxy-thiophene-2-carboxylic acid] | 2 nM | 23 nM
2 | CCOc1cc(-c2cc(NCCn3c(C#N)cc4c(C)ccc(F)c43)ncn2)sc1C(=O)O [Example 891, 5-{6-[2-(2-Cyano-7-fluoro-4-methyl-indol-1-yl)-ethylamino]-pyrimidin-4-yl}-3-ethoxy-thiophene-2-carboxylic acid] | 6 nM | 3 nM
3 | CCOc1cc(-c2cc(NCCn3c(C#N)cc4cccc(F)c43)ncn2)sc1C(=O)O [Example 892, 5-{6-[2-(2-Cyano-7-fluoro-indol-1-yl)-ethylamino]-pyrimidin-4-yl}-3-ethoxy-thiophene-2-carboxylic acid] | 1 nM | 24 nM
4 | CCOc1cc(-c2cc(NCCn3c(C#N)cc4c(C)c(F)c(F)cc43)ncn2)ccc1OCC(=O)O [Example 893, (4-{6-[2-(2-Cyano-5,6-difluoro-4-methyl-indol-1-yl)-ethylamino]-pyrimidin-4-yl}-2-ethoxy-phenoxy)-acetic acid] | 42 nM | 118 nM
5 | CCOc1cc(-c2cc(NCCn3c(C#N)cc4c(C)c(F)c(F)cc43)ncn2)ccc1NCC(=O)O [Example 895, (4-{6-[2-(2-Cyano-5,6-difluoro-4-methyl-indol-1-yl)-ethylamino]-pyrimidin-4-yl}-2-ethoxy-phenylamino)-acetic acid] | 20 nM | 66 nM
6 | CCOc1cc(-c2cc(NCCn3c(C#N)cc4cccc(F)c43)ncn2)ccc1NCC(=O)O [Example 896, (4-{6-[2-(2-Cyano-7-fluoro-indol-1-yl)-ethylamino]-pyrimidin-4-yl}-2-ethoxy-phenylamino)-acetic acid] | 2 nM | 34 nM
7 | CCOC(=O)Cc1ccc(-c2cc(NCCn3c(C)cc4c(OC)ccc(F)c43)ncn2)cc1 [Example 897, (4-{6-[2-(7-Fluoro-4-methoxy-2-methyl-indol-1-yl)-ethylamino]-pyrimidin-4-yl}-phenyl)-acetic acid ethyl ester] | 380 nM | 453 nM
8 | COc1cc(-c2cc(NCCn3c(C#N)cc4c(OC)ccc(F)c43)ncn2)ccn1 [Example 898, 7-Fluoro-4-methoxy-1-{2-[6-(2-methoxy-pyridin-4-yl)-pyrimidin-4-ylamino]-ethyl}-1H-indole-2-carbonitrile] | 41 nM | 123 nM
9 | CCOc1cc(-c2cc(NCCn3c(C#N)cc4c(OC)ccc(F)c43)ncn2)ccc1O [Example 899, 1-{2-[6-(3-Ethoxy-4-hydroxy-phenyl)-pyrimidin-4-ylamino]-ethyl)-7-fluoro-4-methoxy-1H-indole-2-carbonitrile] | 5 nM | 16 nM
10 | COc1ccc(F)c2c1cc(C#N)n2CCNc1cc(-c2ccc(C(N)=O)s2)ncn1 [Example 900, 5-{6-[2-(2-Cyano-7-fluoro-4-methoxy-indol-1-yl)-ethylamino]-pyrimidin-4-yl)-thiophene-2-carboxylic acid amide] | 26 nM | 22 nM
11 | N#Cc1cc2cccc(F)c2n1CCNc1cc(-c2cc(F)c(C(=O)O)s2)ncn1 [Example 901, 5-{6-[2-(2-Cyano-7-fluoro-indol-1-yl)-ethylamino]-pyrimidin-4-yl}-3-fluoro-thiophene-2-carboxylic acid] | 7 nM | 76 nM
12 | COc1cccc2c1cc(C#N)n2CCNc1cc(-c2cc(F)c(C(=O)O)s2)ncn1 [Example 902, 5-{6-[2-(2-Cyano-4-methoxy-indol-1-yl)-ethylamino]-pyrimidin-4-yl}-3-fluoro-thiophene-2-carboxylic acid] | 3 nM | 8 nM
13 | N#Cc1cc2c(Cl)cccc2n1CCNc1cc(-c2cc(F)c(C(=O)O)s2)ncn1 [Example 903, 5-{6-[2-(4-Chloro-2-cyano-indol-1-yl)-ethylamino]-pyrimidin-4-yl}-3-fluoro-thiophene-2-carboxylic acid] | 4 nM | 69 nM
